Data reported in ChEMBL document CHEMBL5042544, “Discovery of a Potent and Selective ATAD2 Bromodomain Inhibitor with Antiproliferative Activity in Breast Cancer Models” (J Med Chem, 2022).

What was measured:
[1] = molecular target: T1, ATPase family AAA domain-containing protein 2 (Homo sapiens, UniProt Q6PL18); test: Inhibition of GST-ATAD2 BD (951 to 1132 residues) (unknown origin) expressed in Escherichia coli BL21 (DE3) and biotinylated tetra-acetylated histone H4 peptides as substrate by TR-FRET artifact assay
T1 sequence (Q6PL18 whole entry): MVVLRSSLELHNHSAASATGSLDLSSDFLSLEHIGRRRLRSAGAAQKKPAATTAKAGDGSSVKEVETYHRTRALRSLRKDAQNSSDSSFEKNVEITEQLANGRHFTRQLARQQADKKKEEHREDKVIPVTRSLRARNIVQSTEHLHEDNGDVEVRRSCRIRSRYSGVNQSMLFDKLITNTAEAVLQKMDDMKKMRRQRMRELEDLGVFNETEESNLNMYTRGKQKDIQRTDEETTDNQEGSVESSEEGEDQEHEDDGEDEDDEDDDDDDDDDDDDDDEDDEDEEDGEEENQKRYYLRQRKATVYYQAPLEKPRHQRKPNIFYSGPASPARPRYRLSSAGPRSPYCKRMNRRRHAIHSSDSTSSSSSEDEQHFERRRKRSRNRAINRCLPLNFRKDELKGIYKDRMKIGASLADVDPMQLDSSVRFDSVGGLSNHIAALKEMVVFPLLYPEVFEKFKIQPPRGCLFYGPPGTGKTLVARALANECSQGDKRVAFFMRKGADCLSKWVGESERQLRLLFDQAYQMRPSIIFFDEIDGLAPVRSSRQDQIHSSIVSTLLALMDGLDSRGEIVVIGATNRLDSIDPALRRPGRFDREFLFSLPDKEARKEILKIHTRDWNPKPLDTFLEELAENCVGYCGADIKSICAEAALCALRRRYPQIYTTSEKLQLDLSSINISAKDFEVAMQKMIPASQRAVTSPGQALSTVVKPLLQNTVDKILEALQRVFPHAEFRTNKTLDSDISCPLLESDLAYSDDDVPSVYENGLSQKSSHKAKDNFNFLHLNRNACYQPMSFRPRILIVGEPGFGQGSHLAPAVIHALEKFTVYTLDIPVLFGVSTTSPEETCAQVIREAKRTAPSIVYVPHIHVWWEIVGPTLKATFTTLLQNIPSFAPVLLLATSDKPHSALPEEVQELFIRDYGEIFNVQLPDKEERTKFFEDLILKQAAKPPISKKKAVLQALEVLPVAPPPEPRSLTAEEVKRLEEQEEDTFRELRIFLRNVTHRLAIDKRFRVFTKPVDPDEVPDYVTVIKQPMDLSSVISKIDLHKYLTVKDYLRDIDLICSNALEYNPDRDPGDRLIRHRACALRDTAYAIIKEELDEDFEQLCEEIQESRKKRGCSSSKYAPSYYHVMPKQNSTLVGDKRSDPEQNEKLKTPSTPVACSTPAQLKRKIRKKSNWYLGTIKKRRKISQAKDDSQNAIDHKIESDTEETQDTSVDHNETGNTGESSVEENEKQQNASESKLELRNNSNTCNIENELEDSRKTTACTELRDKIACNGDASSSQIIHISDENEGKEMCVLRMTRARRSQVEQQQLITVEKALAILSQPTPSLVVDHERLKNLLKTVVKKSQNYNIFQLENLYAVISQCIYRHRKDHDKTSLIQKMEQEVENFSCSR

[2] = molecular target: T2, Bromodomain-containing protein 4 (Homo sapiens, UniProt O60885); test: Displacement of Alexafluor 647-JQ1 from GST-BRD4 BD1 BD2 (44 to 460 residues) (unknown origin) incubated for 60 mins by fluorescence polarization assay
[3] = molecular target: T1, ATPase family AAA domain-containing protein 2; test: Inhibition of GST-ATAD2 BD (951 to 1132 residues) (unknown origin) expressed in Escherichia coli BL21 (DE3) and biotinylated tetra-acetylated histone H4 peptides as substrate incubated for 30 mins by TR-FRET assay
[4] = Distribution coefficient, logD of compound at pH 7.4; assay type: physicochemical; details: octanol/water
[5] = molecular target: T2, Bromodomain-containing protein 4; test: Displacement of Halo-tagged Histone H3.3 from Nanoluc-BRD4 BD1/BD2 (44 to 460 residues) (unknown origin) transfected in human HCT116 cells incubated for 18 hrs by NanoBRET assay; assay type: cell-based, HCT-116
[6] = molecular target: T1, ATPase family AAA domain-containing protein 2; test: Displacement of Halo-tagged Histone H3.3 from Nanoluc-ATAD2A BD (962 to 1119 residues) (unknown origin) transfected in human HCT116 cells incubated for 18 hrs by NanoBRET assay; assay type: cell-based, HCT-116
Homo sapiens = organism: Homo sapiens; test: Selectivity ratio of IC50 for Inhibition of […] GST-ATAD2 BD (981 to 1108 residues) (unknown origin) expressed in Escherichia coli BL21 (DE3) to IC50 for Halo-tagged Histone H3.3 from Nanoluc-ATAD2 BD ([…] residues) (unknown origin) transfected in human HCT116 cells
MDA-MB-231 = test: Antiproliferative activity against human MDA-MB-231 cells assessed as inhibition of proliferation after 72 hrs; assay type: functional
[7] = molecular target: T1, ATPase family AAA domain-containing protein 2; test: Inhibition of GST-ATAD2 BD (981 to 1108 residues) (unknown origin) expressed in Escherichia coli BL21 (DE3) and biotinylated tetra-acetylated histone H4 peptides as substrate incubated for 30 mins by TR-FRET assay
[8] = molecular target: T1, ATPase family AAA domain-containing protein 2; test: Displacement of Halo-tagged Histone H3.3 from Nanoluc-ATAD2 BD (962 to 1119 residues) (unknown origin) transfected in human HCT116 cells incubated for 18 hrs in presence of efflux inhibitor elacridar by NanoBRET assay; assay type: cell-based, HCT-116
[9] = molecular target: T1, ATPase family AAA domain-containing protein 2; test: Displacement of Halo-tagged Histone H3.3 from Nanoluc-ATAD2 BD (962 to 1119 residues) (unknown origin) transfected in human HCT116 cells incubated for 18 hrs in presence of efflux inhibitor verapamil by NanoBRET assay; assay type: cell-based, HCT-116
[10] = molecular target: T1, ATPase family AAA domain-containing protein 2; test: Displacement of Halo-tagged Histone H3.3 from Nanoluc-ATAD2 BD (962 to 1119 residues) (unknown origin) transfected in human HCT116 cells incubated for 18 hrs in presence of efflux inhibitor reversan by NanoBRET assay; assay type: cell-based, HCT-116

SMILES | IC50 [1] [µM] | IC50 [2] [µM] | IC50 [3] [µM] | logD [4] | IC50 [5] [µM] | IC50 [6] [µM] | GI50 (MDA-MB-231) [µM] | IC50 [7] [µM] | IC50 [8] [µM] | IC50 [9] [µM] | IC50 [10] [µM] | Ratio IC50 (Homo sapiens)
C[C@H]1NC(=O)[C@@H]2Cc3ccccc3[C@H]1N2C(=O)c1cn(C)c(=O)c2[nH]c3ccc(OC(F)(F)F)cc3c12 | > 25.1 | > 31.6 | 0.078 | 3.4 | 126 | 1.26 |  |  | 0.794 | 0.501 | 0.794 | 16
Cc1nnc2c(N)cc(C(=O)N3[C@H]4Cc5ccccc5[C@@H]3CNC4=O)cn12 | > 25.1 | > 31.6 | 6.08 | 0.1 |  |  |  |  |  |  |  | 
Cc1nnc2c(NC3CCN(C)CC3)cc(C(=O)N3[C@H]4Cc5ccccc5[C@@H]3CNC4=O)nn12 | > 25.1 | > 31.6 | 0.3 | 0.2 | 31.6 | 2.51 |  | 0.0316 |  |  |  | 79
C[C@H]1NC(=O)[C@@H]2Cc3ccccc3[C@H]1N2C(=O)c1cn(C)c(=O)c2[nH]c3ccccc3c12 | > 25.1 | 31.6 | 0.21 | 1.9 |  |  |  |  |  |  |  | 
CO[C@H]1CNC[C@@H](OCC2CCC(F)(F)CC2)[C@@H]1Nc1ncc(-c2cncc(C)c2)c2cc(C)c(=O)[nH]c12 |  |  |  | 2.7 |  |  |  |  |  |  |  | 
CNc1cc(C(=O)N2[C@H]3Cc4ccccc4[C@@H]2CNC3=O)cn(C)c1=O | > 25.1 |  | 11.8 | 0.5 |  |  |  |  |  |  |  | 
Cn1cc(C(=O)N2[C@H]3Cc4ccccc4[C@@H]2CNC3=O)c2cc[nH]c2c1=O | > 25.1 | 15.8 | 1.48 | 0.7 |  |  |  |  |  |  |  | 
Cc1nnc2c(NCCCN3CCCC3)cc(C(=O)N3[C@@H]4c5ccccc5C[C@H]3C(=O)N[C@@H]4C(C)C)nn12 | > 25.1 | 25.1 | 0.014 | 0.5 | 25.1 | 2 |  |  |  |  |  | 126
COc1cc(C(=O)N2C3Cc4ccccc4C2CNC3=O)cc(OC)c1O (stereo unspecified) | > 25.1 | > 31.6 | 20.2 | 0.9 |  |  |  |  |  |  |  | 

Further lines, with some results ahead:

IC50 [1] [µM] | IC50 [2] [µM] | IC50 [3] [µM] | logD [4] | IC50 [5] [µM] | IC50 [6] [µM] | GI50 (MDA-MB-231) [µM] | IC50 [7] [µM] | IC50 [8] [µM] | IC50 [9] [µM] | IC50 [10] [µM] | SMILES | Ratio IC50 (Homo sapiens)
> 25.1 | > 31.6 | 0.44 | 2.6 |  |  |  |  |  |  |  | CC(C)[C@H]1NC(=O)[C@@H]2Cc3ccccc3[C@H]1N2C(=O)c1cn(C)c(=O)c2[nH]c3ccccc3c12 | 
> 25.1 | > 31.6 | 34.3 | 0 |  |  |  |  |  |  |  | Cn1cc(C(=O)N2[C@H]3Cc4ccccc4[C@@H]2CNC3=O)cc(N)c1=O | 
> 25.1 | > 31.6 | 0.02 | 3 | 31.6 | 1.26 |  |  |  |  |  | Cc1nnc2c(NCCCN3CCC(F)(F)CC3)cc(C(=O)N3[C@@H]4c5ccccc5C[C@H]3C(=O)N[C@@H]4C(C)C)nn12 | 63
 |  |  |  |  |  | 1 | 3.16 |  |  |  | CC1=C(C#N)c2nc(N)c(C#N)c(C)c2/C1=C\c1ccc(-c2cc(C(=O)O)ccc2Cl)o1 | 
> 25.1 | 7.94 | 3.56 | 0.9 |  |  |  |  |  |  |  | CN1C[C@H]2c3ccccc3C[C@@H](C1=O)N2C(=O)c1cn(C)c(=O)c2[nH]ccc12 | 
> 25.1 | > 31.6 | 0.022 | 3 | 50.1 | 0.501 |  |  | 0.501 | 0.501 | 0.501 | Cc1nnc2c(NC3CCN(CC(C)(F)F)CC3)cc(C(=O)N3[C@@H]4c5ccccc5C[C@H]3C(=O)N[C@@H]4C(C)C)nn12 | 25
> 25.1 | > 31.6 | 26.3 | 0.3 |  |  |  |  |  |  |  | Cc1cc(C(=O)N2[C@H]3Cc4ccccc4[C@@H]2CNC3=O)c[nH]c1=O | 
> 25.1 | 25.1 | 0.28 | 0.8 |  |  |  |  |  |  |  | Cc1nnc2c(N)cc(C(=O)N3[C@H]4Cc5ccccc5[C@@H]3CNC4=O)nn12 | 
> 25.1 | 7.94 | 0.42 | 2 |  |  |  |  |  |  |  | Cn1cc(C(=O)N2[C@H]3Cc4ccccc4[C@@H]2CNC3=O)c2c([nH]c3ccccc32)c1=O | 
 |  | > 20 | -0.3 |  |  |  |  |  |  |  | Cc1nnc2c(NC3CCN(C)CC3)nc(C(=O)N3[C@H]4Cc5ccccc5[C@@H]3CNC4=O)cn12 | 
> 25.1 | > 31.6 | 0.37 | -0.5 |  |  |  |  |  |  |  | Cc1nnc2c(NC3CCN(C)CC3)cc(C(=O)N3[C@H]4Cc5ccccc5[C@@H]3CNC4=O)cn12 | 
> 25.1 | > 31.6 | 0.041 | -0.3 |  |  |  |  |  |  |  | Cc1nnc2c(NCCCN3CCCC3)cc(C(=O)N3[C@H]4Cc5ccccc5[C@@H]3CNC4=O)nn12 | 
> 25.1 | > 31.6 | 21.2 | 0.9 |  |  |  |  |  |  |  | COc1cc(C(=O)N2[C@H]3Cc4ccccc4[C@@H]2CNC3=O)cc(OC)c1O | 
> 251 | > 31.6 | 4.88 | 2 |  |  |  |  |  |  |  | COc1cc(C(=O)N2[C@H]3Cc4ccccc4[C@@H]2CNC3=O)cc2c(C)n[nH]c12 | 
